We go through four compounds from publication PMC13089524, “Development of SYK NanoBRET cellular target engagement assays for gain–of–function variants” (Frontiers in chemical biology, 2024).

Some results are limits rather than exact numbers.

The IC50 is the concentration at which inhibition is half-maximal. As usually defined, the Kd is the constant that tells how readily two partners part at equilibrium. For orientation: EC50 means the concentration that produces a half-maximal response.

The target of series [1] is T1, SYK(P342T)-NL (Homo sapiens, UniProt P43405, P342T).
T1 construct: host or cells: HEK293
The series can be described thus: NanoBRET cellular target engagement assay in intact live HEK293 cells, SYK(P342T)-NL. The series is classed as cell-based. Background: In BRET a luciferase serves as donor, and the signal depends on an acceptor being close.
Experimental: (§1) NL orientations used in the respective assays are indicated. […] Plates were incubated for 25 min at room temperature if digitonin was added or for 2 h at 37°C in 5% CO2 for the intact cell NanoBRET assay. […] For intact live cells in a 96-well plate, the 3X stock solution was prepared with 30 μL of NanoBRET NanoGlo substrate, 10 μL of extracellular NanoLuc inhibitor, and 4,960 μL of Opti-MEM without phenol red. For digitonin permeabilized live cells in a 96-well plate, the 3X stock solution was prepared with 30 μL of NanoBRET NanoGlo substrate and 4,970 μL of Opti-MEM without phenol red. Raw milliBRET units (mBU) were read on a GloMax Discover system (Promega) with a donor emission wavelength of 450 nm and an acceptor emission wavelength of 600 nm. mBU were calculated by dividing the acceptor emission values (600 nm) by the donor emission values (450 nm). For NanoBRET studies with SYK, background corrected mBU were calculated by subtracting the no tracer wells from the tracer-containing wells and multiplying by 1,000.
(§2) MRL-SYKi was used to compete away the NanoBRET signal produced with tracer 8. […] Tracer 8 was prepared in DMSO and DMEM without phenol red in 11-point dose-response format with 3 μM as the top concentration, with a final assay plate concentration of 1% DMSO. 10X stock solutions of MRL-SYKi were prepared from 10 mM DMSO stock solution with room temperature Opti-MEM without phenol red, for final assay plate concentrations of 10 μM. 10 μL of 8 (10X) was added to each well, with the exception of the no tracer control wells, and 10 μL of 10X solutions of MRL-SYKi was added to wells for tracer competition. One biological replicate was plotted in GraphPad Prism with [inhibitor] vs response (three parameters).
(§3) MRL-SYKi was tested in 11-point dose–response format with a top concentration of 10 μM. […] The final assay plate concentrations included 1% DMSO. 5 μL of 8 (20X) was added to each well, except the no tracer control wells, and 10 μL of 10X threefold diluted solutions of MRL-SYKi was added to wells. Two biological replicates were plotted in GraphPad Prism with log[inhibitor] vs response (three parameters) with the error bars indicating standard deviation.
(§4) Compounds were tested in 11-point dose–response format with a top concentration of 10 μM. Data are reported as IC50 ± standard error mean (SEM). One biological replicate was plotted in GraphPad Prism with log[inhibitor] vs response (three parameters), the three IC50’s were averaged and the SEM was calculated.

The next series relates to JAK1. Particulars: ref Ma et al., 2015; Guo et al., 2017; cited from earlier work.
The target in series [2] is T2, SYK(S550F)-NL (Homo sapiens, UniProt P43405, S550F).
T2 construct: host or cells: HEK293
In words: NanoBRET cellular target engagement assay in intact live HEK293 cells, SYK(S550F)-NL. The series is classed as cell-based.
Experimental: as §1, §2, §3, §4

The next series deals with TNK1. Particulars: only off-target kinase bound; ref Sharman et al., 2015; Cooper et al., 2023; cited from earlier work.
A further series has as its target T3, SYK (Homo sapiens, UniProt P43405).
T3 construct: purchased Eurofins DiscoverX (contract assay service)
In words: Eurofins DiscoverX SYK enzymatic radiometric assay. The series is classed as biochemical.

For the next series, the target named is T4, SYK(WT)-NL (Homo sapiens, UniProt P43405).
T4 construct: SYK tracers enable BRET with full-length SYK(WT) after digitonin permeabilization; host or cells: HEK293
The series can be described thus: NanoBRET assay in digitonin permeabilized HEK293 cells, SYK(WT)-NL. The series is classed as cell-based.

Series [3] has as its target T2, SYK(S550F)-NL. In words: NanoBRET assay in digitonin permeabilized HEK293 cells, SYK(S550F)-NL. The series is classed as cell-based. Particulars: relative to MRL-SYKi (20 μM) treated cells, single experiment, read-out: EC50 of tracer, SYK(variant)-NL S550F.
Experimental: (§5) We performed NanoBRET tracer optimization to determine if the SYK tracers could effectively generate a BRET signal. […] To enable the NanoBRET assay using tracer 8 with cells permeabilized by digitonin, a tracer dose–response study was performed for each SYK(GoF) variant and SYK(WT) (Figure 3A), followed by tracer titration experiments (Figure 3B; Supplementary Figure S3). […] Initially, we determined the EC50 of tracer 8 for each SYK(GoF) variant and SYK(WT). […] Plates were incubated for 25 min at room temperature if digitonin was added or for 2 h at 37°C in 5% CO2 for the intact cell NanoBRET assay. […] For intact live cells in a 96-well plate, the 3X stock solution was prepared with 30 μL of NanoBRET NanoGlo substrate, 10 μL of extracellular NanoLuc inhibitor, and 4,960 μL of Opti-MEM without phenol red. […] Raw milliBRET units (mBU) were read on a GloMax Discover system (Promega) with a donor emission wavelength of 450 nm and an acceptor emission wavelength of 600 nm. mBU were calculated by dividing the acceptor emission values (600 nm) by the donor emission values (450 nm). For NanoBRET studies with SYK, background corrected mBU were calculated by subtracting the no tracer wells from the tracer-containing wells and multiplying by 1,000. […]
The target of a further series is T5, SYK(WT) (Homo sapiens, UniProt P43405).
T5 construct: Full-length human SYK(WT) DNA was custom synthesized (GenScript); 6His (N, cleaved yes); GST (N, cleaved yes); made in house; host or cells: Sf9 insect cells (baculovirus, pFastbac1)
The series can be described thus: PhosphoSens SOX peptide kinase activity assay, SYK(WT). The series is classed as biochemical. Particulars: dose-response, purified protein. From the text:
Full-length human SYK(WT) DNA was custom synthesized (GenScript) as a codon optimized form for expression in Sf9 cells. N-terminal 6His and GST tags were introduced, followed by a TEV protease cleavage site, and cloned into pFastbac1. SYK(S550F) and SYK(P342T) were generated by site-directed mutagenesis of SYK(WT) using the NEB Q5 site directed mutagenesis kit. Plasmids were transformed into E. coli DH10Bac for bacmid generation. Recombinant bacmid DNA was used to transfect Sf9 cells to generate viral stocks. For large-scale protein production, 2 L of Sf9 cells at 2 × 10^6 cells/ml were infected with a P2 virus stock and allowed to incubate with shaking for 3 days at 27°C. Harvested cells were lysed in 200 mL lysis buffer containing 50 mM HEPES (pH 7.5), 500 mM NaCl, 10 mM imidazole, 10% glycerol, 1 mM TCEP. […]
SYK kinase activity was evaluated using a continuous kinase assay using a PhosphoSens (AssayQuant) SOX peptide, according to the protocol provided, with modifications. […] Fluorescence readings were taken at 30-s intervals for a duration ranging from 30 min to an hour, using a PheraStar FX device set to kinetic mode, employing an appropriate optics module (FI 350 460). The data was represented as a plot of relative fluorescence over time, deducting the fluorescence of control reactions (which lacked kinase) from the fluorescence recorded after introducing the kinase. […]

For a further series, the target named is T6, SYK(A353T)-NL (Homo sapiens, UniProt P43405, A353T).
T6 construct: host or cells: HEK293
In words: NanoBRET assay in digitonin permeabilized HEK293 cells, SYK(A353T)-NL. Particulars: relative to MRL-SYKi (20 μM) treated cells, single experiment, read-out: EC50 of tracer, SYK(variant)-NL A353T. The series is classed as cell-based.

The target of series [4] is T7, SYK(S550Y)-NL (Homo sapiens, UniProt P43405, S550Y).
T7 construct: host or cells: HEK293
In words: NanoBRET cellular target engagement assay in intact live HEK293 cells, SYK(S550Y)-NL. The series is classed as cell-based. Particulars: intact cells, ± 10 μM MRL-SYKi, single experiment; read-out: cellular EC50 of the tracer, SYK(S550Y)-NL.
Experimental: as §1, §2, §3, §4

Another series addresses T8, SYK(M450I)-NL (Homo sapiens, UniProt P43405, M450I).
T8 construct: host or cells: HEK293
The series can be described thus: NanoBRET assay in digitonin permeabilized HEK293 cells, SYK(M450I)-NL. The series is classed as cell-based. Particulars: relative to MRL-SYKi (20 μM) treated cells, single experiment, read-out: EC50 of tracer, SYK(variant)-NL M450I.

Series [5] can be described thus: Solubility of tracer in NanoBRET assay medium. Particulars: dose-response top concentration 3 μM. The series is classed as physicochemical.
Series [6] concerns the target T1, SYK(P342T)-NL. In words: NanoBRET assay in digitonin permeabilized HEK293 cells, SYK(P342T)-NL. Particulars: relative to MRL-SYKi (20 μM) treated cells, single experiment, read-out: EC50 of tracer, SYK(variant)-NL P342T. The series is classed as cell-based.
Experimental: as §5
In series [7] the target is T7, SYK(S550Y)-NL. In words: NanoBRET assay in digitonin permeabilized HEK293 cells, SYK(S550Y)-NL. The series is classed as cell-based. Particulars: relative to MRL-SYKi (20 μM) treated cells, single experiment, read-out: EC50 of tracer, SYK(variant)-NL S550Y.
Experimental: as §5
For series [8], the system named is pSYK(Y525/526) in SW480 cells stably expressing SYK(S550Y). Particulars: ref Wang et al. (2021); cited from earlier work.

Experimental for SYK(A353T)-NL: as §5
Experimental for SYK(M450I)-NL: as §5
Experimental for SYK(WT)-NL: We performed NanoBRET tracer optimization to determine if the SYK tracers could effectively generate a BRET signal. […] To enable the NanoBRET assay using tracer 8 with cells permeabilized by digitonin, a tracer dose–response study was performed for each SYK(GoF) variant and SYK(WT) (Figure 3A), followed by tracer titration experiments (Figure 3B; Supplementary Figure S3). […] Initially, we determined the EC50 of tracer 8 for each SYK(GoF) variant and SYK(WT). […] Plates were incubated for 25 min at room temperature if digitonin was added or for 2 h at 37°C in 5% CO2 for the intact cell NanoBRET assay. […] For intact live cells in a 96-well plate, the 3X stock solution was prepared with 30 μL of NanoBRET NanoGlo substrate, 10 μL of extracellular NanoLuc inhibitor, and 4,960 μL of Opti-MEM without phenol red. For digitonin permeabilized live cells in a 96-well plate, the 3X stock solution was prepared with 30 μL of NanoBRET NanoGlo substrate and 4,970 μL of Opti-MEM without phenol red. Raw milliBRET units (mBU) were read on a GloMax Discover system (Promega) with a donor emission wavelength of 450 nm and an acceptor emission wavelength of 600 nm. mBU were calculated by dividing the acceptor emission values (600 nm) by the donor emission values (450 nm). For NanoBRET studies with SYK, background corrected mBU were calculated by subtracting the no tracer wells from the tracer-containing wells and multiplying by 1,000.
HEK293 cells were transfected with constructs of SYK(WT) or SYK(KD) tagged with NL on the C- or N-terminus and SYK GoF variants tagged with NL on the C-terminus. Tracer 8 (20X) was prepared from a 400 μM stock solution in DMSO with tracer dilution buffer (Promega, #N291B) and 20% DMSO, with a final assay plate concentration of 1% DMSO. 5 μL of 8 (20X) was added to each well, with exception of the no tracer control wells, with final plate concentrations of 0.5, 1, and 2 μM. 10 μL of digitonin (Fisher, 10X, 500 μg/mL) was added to specific wells to permeabilize the cells. The 10X digitonin stock was prepared by diluting a 40X DMSO solution of digitonin with room temperature Opti-MEM without phenol red, for a final assay plate concentration of 1% DMSO. SYK inhibitor stock solutions of MRL-SYKi (10X) were prepared from 10 mM DMSO stock solutions with room temperature Opti-MEM without phenol red, for final assay plate concentrations of 10 μM. Plates were incubated for 25 min at room temperature if digitonin was added or for 2 h at 37°C in 5% CO2 for the intact cell NanoBRET assay. Two technical replicates were plotted in a bar chart with the standard deviation represented as error bars on Graphpad Prism.

As for `CCS(=O)(=O)N1CCN(c2ccc(Nc3ncc(C(N)=O)c(NC4CC4)n3)cc2)CC1` [Cerdulatinib], the IC50 on SYK(P342T)-NL [1] (intact HEK293 cells, 125 nM tracer 8, average of triplicate ± SEM, read-out: SYK(P342T) IC50) is 360 ± 36 nM; in the series on JAK1, 12 nM; at SYK(S550F)-NL [2] (intact HEK293 cells, 125 nM tracer 8, average of triplicate ± SEM, read-out: SYK(S550F) IC50), 170 ± 21 nM.

With `c1cn2cc(-c3ccc4cn[nH]c4c3)nc(Nc3ccc(N4CCOCC4)cc3)c2n1` [Entospletinib], the Kd at TNK1 is < 100 nM.

Compound `Cc1cc(Nc2nccc(C)n2)cc(-c2cnc([C@@]3(O)CC[C@H](C(=O)NCCCNC(=O)CCc4ccc5n4[B-](F)(F)[N+]4=C(c6ccc[nH]6)C=CC4=C5)C(C)(C)C3)s2)c1` [Tracer 8] displayed an IC50 against SYK (Km value for ATP, 9-pt dose-response) of 110 nM. The “decrease in potency compared to the parent inhibitor MRL-SYKi” value at SYK (ratio of enzymatic IC50) is recorded as 3.6 fold. Also, on SYK(WT)-NL (C-terminal NL fusion, tracer 0.5, 1, 2 μM), the “BRET signal (background subtracted)” value is “approximately 15 mBU”. The EC50 was determined as 39 nM at SYK(WT)-NL (relative to MRL-SYKi (20 μM) treated cells, single experiment, read-out: EC50 of tracer, SYK(variant)-NL WT); 7 nM on SYK(S550F)-NL [3]; 280 nM at SYK(P342T)-NL [1] (intact cells, ± 10 μM MRL-SYKi, single experiment, read-out: cellular EC50 of the tracer, SYK(P342T)-NL); 24 nM on SYK(A353T)-NL; 159 nM on SYK(S550Y)-NL [4]; 65 nM at SYK(M450I)-NL. Moreover, the EC50 on SYK(P342T)-NL [6] was 9 nM; on SYK(S550Y)-NL [7], 8 nM; at SYK(S550F)-NL [2] (intact cells, ± 10 μM MRL-SYKi, single experiment, read-out: cellular EC50 of the tracer, SYK(S550F)-NL), 273 nM. On SYK(WT), the “effect on SYK(WT) catalytic activity” value is listed as “inhibits SYK(WT) catalytic activity”. Further, the solubility result in series [5] is reported as “solubility issues at >3 μM”.

As to `COc1cc(Nc2ncc(F)c(Nc3ccc4c(n3)NC(=O)C(C)(C)O4)n2)cc(OC)c1OC` [Tracer R406], the S550Y phosphorylation levels entry in [8] is given as “decrease S550Y phosphorylation levels”.
